Results from ChEMBL document CHEMBL4507291 (2021).

Legend:
[1] = test system: Receptor-type tyrosine-protein kinase FLT3 (Homo sapiens), P36888 [UNDEFINED MUTATION]
[2] = biological target: Glycogen synthase kinase-3 beta (Homo sapiens) (UniProt P49841)
[3] = biological target: T1, Tyrosine-protein kinase Mer (Homo sapiens) (UniProt Q12866)
T1 sequence (whole entry): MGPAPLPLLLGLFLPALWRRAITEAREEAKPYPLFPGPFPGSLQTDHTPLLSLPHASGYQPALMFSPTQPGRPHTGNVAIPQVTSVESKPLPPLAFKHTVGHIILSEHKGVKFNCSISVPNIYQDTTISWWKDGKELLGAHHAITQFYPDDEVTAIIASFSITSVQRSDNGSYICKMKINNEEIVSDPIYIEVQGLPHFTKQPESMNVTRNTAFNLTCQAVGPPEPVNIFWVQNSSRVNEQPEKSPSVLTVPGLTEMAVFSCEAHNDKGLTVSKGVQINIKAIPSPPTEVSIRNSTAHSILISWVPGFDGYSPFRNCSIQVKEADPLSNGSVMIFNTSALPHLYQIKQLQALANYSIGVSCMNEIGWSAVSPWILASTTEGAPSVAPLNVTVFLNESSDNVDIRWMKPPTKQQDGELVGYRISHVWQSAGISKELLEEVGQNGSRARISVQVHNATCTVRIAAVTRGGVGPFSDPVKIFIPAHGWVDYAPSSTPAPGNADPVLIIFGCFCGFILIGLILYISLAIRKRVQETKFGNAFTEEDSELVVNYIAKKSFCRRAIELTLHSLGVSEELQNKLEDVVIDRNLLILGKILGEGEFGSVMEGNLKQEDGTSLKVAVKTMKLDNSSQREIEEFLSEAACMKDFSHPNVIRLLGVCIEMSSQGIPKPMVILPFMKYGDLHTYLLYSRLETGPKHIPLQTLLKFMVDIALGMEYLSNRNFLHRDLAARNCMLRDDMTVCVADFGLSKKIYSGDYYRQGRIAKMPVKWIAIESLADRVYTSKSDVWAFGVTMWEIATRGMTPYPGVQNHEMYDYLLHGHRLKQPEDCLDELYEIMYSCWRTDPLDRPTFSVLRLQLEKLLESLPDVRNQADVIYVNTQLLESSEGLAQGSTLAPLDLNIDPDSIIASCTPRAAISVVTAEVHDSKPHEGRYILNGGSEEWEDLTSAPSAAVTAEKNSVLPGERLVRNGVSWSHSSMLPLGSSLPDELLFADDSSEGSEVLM

[4] = biological target: Fibroblast growth factor receptor 3 (Homo sapiens) (UniProt P22607)
[5] = biological target: Calcium/calmodulin-dependent protein kinase type 1B (Homo sapiens) (UniProt Q6P2M8)
Calcium/calmodulin-dependent protein kinase type 1B (Homo sapiens), sequence (Q6P2M8 whole entry): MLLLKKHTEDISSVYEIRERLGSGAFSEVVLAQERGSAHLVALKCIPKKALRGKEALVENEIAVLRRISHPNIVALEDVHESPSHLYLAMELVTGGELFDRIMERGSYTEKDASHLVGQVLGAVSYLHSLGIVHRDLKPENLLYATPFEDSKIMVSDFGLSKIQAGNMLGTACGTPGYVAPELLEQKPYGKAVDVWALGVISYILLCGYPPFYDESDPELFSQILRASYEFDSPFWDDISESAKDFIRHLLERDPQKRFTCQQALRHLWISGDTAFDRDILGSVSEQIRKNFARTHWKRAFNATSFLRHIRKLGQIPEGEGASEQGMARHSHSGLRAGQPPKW

[6] = biological target: Dual specificity mitogen-activated protein kinase kinase 7 (Homo sapiens) (UniProt O14733)
Dual specificity mitogen-activated protein kinase kinase 7 (Homo sapiens), sequence (O14733 whole entry): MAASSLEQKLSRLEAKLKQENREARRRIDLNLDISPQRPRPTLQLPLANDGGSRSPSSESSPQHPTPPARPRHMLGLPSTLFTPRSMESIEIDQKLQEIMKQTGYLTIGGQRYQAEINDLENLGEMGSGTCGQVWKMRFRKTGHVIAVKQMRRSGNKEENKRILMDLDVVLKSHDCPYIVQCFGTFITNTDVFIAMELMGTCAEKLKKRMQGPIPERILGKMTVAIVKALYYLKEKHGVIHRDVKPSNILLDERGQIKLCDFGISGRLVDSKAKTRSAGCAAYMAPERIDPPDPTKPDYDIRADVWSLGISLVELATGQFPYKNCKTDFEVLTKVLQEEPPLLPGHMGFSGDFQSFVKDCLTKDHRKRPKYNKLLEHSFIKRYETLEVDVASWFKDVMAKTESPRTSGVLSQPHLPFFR

[7] = biological target: NUAK family SNF1-like kinase 2 (Homo sapiens) (UniProt Q9H093)
NUAK family SNF1-like kinase 2 (Homo sapiens), sequence (Q9H093 whole entry): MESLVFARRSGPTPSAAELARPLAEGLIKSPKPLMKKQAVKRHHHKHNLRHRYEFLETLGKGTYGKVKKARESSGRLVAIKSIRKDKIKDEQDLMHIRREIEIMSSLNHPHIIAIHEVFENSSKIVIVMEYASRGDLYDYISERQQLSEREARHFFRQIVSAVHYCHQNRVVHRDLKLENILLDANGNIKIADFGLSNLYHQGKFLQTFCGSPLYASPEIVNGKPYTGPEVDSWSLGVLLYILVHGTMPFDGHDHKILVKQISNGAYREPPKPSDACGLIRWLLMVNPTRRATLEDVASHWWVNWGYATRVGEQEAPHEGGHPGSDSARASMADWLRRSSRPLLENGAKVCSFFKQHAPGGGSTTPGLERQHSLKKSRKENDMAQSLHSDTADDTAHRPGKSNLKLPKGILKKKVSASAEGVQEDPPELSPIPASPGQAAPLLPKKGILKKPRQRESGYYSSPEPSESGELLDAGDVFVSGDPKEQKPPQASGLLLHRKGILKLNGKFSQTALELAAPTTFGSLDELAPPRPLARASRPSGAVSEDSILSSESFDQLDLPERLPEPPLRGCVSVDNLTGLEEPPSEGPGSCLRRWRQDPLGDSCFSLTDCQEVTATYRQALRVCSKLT

[8] = biological target: Mitogen-activated protein kinase kinase kinase 15 (Homo sapiens) (UniProt Q6ZN16)
[9] = biological target: T2, Tyrosine-protein kinase JAK3 (Homo sapiens) (UniProt P52333)
T2 sequence (whole entry): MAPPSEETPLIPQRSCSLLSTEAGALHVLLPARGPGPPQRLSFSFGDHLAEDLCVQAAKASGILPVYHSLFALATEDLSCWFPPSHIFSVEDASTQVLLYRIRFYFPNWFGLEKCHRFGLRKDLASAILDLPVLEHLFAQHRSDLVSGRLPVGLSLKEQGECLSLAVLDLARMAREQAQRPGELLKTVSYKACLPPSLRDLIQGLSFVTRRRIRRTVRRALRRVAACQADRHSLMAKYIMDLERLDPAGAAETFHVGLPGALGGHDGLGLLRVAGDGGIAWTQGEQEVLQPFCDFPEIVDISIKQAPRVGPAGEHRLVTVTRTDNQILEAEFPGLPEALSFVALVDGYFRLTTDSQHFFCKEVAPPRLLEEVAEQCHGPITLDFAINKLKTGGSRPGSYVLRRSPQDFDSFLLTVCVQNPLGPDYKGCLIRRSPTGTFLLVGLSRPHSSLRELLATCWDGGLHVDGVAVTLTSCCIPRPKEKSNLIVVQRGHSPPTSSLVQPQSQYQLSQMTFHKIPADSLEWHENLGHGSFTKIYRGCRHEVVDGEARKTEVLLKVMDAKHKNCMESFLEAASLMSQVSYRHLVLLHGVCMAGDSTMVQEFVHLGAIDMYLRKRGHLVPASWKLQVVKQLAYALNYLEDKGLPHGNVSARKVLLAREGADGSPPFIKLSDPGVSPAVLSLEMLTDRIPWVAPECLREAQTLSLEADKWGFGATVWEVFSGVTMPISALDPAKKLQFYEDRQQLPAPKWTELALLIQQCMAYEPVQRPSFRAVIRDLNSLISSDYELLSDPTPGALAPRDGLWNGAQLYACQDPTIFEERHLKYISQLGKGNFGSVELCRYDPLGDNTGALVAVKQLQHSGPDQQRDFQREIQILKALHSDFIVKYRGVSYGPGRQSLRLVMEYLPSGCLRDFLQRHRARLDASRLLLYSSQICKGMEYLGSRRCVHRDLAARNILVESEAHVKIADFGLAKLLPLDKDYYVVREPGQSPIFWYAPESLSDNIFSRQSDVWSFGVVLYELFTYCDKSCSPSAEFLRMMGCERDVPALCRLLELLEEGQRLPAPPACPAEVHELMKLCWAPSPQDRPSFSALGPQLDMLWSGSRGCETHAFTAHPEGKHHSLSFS

[10] = biological target: Non-receptor tyrosine-protein kinase TYK2 (Homo sapiens) (UniProt P29597)
Non-receptor tyrosine-protein kinase TYK2 (Homo sapiens), sequence (P29597 whole entry): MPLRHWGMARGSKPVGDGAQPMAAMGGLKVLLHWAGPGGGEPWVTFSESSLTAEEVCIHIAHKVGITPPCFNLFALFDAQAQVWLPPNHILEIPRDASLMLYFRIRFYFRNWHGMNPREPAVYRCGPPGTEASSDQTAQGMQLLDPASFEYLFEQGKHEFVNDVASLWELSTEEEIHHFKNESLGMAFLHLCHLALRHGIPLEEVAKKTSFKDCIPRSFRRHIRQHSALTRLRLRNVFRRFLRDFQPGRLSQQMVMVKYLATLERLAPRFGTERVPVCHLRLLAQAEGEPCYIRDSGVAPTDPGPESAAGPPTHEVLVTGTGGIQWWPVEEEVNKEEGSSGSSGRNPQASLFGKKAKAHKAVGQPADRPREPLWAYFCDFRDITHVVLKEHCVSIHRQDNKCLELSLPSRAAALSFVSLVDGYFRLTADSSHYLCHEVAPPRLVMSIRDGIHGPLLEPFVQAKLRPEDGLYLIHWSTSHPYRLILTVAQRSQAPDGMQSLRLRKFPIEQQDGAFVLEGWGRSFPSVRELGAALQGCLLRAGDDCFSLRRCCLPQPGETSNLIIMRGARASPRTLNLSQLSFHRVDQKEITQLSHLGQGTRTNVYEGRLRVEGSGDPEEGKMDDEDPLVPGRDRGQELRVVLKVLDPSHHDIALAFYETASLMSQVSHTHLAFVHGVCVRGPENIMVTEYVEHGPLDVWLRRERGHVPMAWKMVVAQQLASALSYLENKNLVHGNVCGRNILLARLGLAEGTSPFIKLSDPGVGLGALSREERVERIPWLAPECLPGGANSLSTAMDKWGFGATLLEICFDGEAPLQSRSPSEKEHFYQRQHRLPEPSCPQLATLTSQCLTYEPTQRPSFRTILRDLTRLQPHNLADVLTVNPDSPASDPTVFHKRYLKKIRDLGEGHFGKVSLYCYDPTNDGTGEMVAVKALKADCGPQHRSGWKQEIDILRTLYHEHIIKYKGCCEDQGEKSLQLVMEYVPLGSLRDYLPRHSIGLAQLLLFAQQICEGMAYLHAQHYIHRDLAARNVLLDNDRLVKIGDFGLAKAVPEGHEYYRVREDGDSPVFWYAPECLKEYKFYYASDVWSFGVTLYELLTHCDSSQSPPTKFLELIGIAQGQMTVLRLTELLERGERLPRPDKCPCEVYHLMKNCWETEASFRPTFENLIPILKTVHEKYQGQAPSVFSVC

[11] = biological target: Serine/threonine-protein kinase 32A (Homo sapiens) (UniProt Q8WU08)
Serine/threonine-protein kinase 32A (Homo sapiens), sequence (Q8WU08 whole entry): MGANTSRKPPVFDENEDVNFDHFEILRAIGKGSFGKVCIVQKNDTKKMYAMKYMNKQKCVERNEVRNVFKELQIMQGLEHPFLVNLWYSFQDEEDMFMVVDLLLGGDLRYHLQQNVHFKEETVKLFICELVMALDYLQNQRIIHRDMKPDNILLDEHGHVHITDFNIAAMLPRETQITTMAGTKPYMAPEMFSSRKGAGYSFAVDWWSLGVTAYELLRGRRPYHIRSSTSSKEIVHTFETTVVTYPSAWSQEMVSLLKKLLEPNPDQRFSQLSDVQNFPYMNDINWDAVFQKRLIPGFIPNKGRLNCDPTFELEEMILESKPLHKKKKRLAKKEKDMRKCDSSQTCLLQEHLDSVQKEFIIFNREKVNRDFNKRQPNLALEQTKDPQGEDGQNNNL

[12] = biological target: Serine/threonine-protein kinase LATS2 (Homo sapiens) (UniProt Q9NRM7)
Serine/threonine-protein kinase LATS2 (Homo sapiens), sequence (Q9NRM7 whole entry): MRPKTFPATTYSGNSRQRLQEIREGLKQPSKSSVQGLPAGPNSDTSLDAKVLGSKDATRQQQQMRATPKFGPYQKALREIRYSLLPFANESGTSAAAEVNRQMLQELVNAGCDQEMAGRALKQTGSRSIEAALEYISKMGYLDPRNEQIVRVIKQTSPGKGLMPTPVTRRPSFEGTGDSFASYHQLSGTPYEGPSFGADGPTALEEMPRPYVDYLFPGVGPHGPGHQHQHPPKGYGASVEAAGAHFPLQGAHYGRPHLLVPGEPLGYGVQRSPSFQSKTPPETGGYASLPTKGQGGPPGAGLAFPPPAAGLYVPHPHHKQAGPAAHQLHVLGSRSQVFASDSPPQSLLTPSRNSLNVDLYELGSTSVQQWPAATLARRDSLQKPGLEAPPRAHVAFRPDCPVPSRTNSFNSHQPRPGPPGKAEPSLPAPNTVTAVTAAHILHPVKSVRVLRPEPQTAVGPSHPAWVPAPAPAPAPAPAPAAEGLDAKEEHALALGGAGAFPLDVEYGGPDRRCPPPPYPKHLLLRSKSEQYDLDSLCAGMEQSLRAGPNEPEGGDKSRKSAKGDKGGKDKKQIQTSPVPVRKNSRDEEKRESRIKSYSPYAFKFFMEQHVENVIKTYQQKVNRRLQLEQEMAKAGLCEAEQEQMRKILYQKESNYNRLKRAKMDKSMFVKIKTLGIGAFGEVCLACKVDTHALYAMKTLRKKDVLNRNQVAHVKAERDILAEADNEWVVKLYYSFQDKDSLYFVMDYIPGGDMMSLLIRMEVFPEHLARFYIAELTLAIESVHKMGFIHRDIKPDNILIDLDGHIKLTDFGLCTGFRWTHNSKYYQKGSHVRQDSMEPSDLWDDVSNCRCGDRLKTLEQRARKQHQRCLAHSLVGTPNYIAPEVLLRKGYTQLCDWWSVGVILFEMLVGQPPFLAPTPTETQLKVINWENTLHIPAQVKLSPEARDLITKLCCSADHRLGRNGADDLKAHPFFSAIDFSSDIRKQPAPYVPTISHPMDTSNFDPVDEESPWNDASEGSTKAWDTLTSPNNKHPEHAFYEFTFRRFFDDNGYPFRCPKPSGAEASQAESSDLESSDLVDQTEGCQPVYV

[13] = biological target: High affinity nerve growth factor receptor (Homo sapiens) (UniProt P04629)
[14] = Compound concentration 100.0 nM
[15] = Compound concentration 1000.0 nM

Receptor-type tyrosine-protein kinase FLT3 (Homo sapiens), P36888 [UNDEFINED MUTATION], sequence (P36888 whole entry, looked up, change not shown): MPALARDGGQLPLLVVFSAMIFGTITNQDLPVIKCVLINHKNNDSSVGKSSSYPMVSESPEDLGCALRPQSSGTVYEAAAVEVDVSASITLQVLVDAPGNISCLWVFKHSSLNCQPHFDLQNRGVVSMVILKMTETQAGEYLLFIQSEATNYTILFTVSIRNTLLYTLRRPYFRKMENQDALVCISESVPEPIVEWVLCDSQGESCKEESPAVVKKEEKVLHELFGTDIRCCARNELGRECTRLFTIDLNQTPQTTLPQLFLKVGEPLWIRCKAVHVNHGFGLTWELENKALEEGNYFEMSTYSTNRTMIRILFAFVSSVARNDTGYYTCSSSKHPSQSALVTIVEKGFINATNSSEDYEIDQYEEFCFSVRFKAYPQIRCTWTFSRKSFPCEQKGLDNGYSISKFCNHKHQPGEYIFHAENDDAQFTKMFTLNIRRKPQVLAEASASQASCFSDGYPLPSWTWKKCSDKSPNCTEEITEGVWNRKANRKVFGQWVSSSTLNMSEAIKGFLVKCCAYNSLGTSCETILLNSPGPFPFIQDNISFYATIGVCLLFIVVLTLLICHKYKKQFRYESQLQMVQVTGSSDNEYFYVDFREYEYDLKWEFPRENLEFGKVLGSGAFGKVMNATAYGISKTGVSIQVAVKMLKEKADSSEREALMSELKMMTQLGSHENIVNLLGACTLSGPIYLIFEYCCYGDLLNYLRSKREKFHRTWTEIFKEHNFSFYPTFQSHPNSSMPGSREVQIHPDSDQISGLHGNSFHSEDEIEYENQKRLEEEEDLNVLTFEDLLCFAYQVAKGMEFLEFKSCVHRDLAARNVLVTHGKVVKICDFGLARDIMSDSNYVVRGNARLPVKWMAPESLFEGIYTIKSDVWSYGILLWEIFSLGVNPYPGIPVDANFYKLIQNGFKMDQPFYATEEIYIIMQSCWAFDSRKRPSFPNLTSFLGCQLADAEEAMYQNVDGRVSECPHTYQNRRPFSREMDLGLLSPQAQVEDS

C[C@@H]1CN(c2cc(-c3n[nH]c4ccc(OC5(C)CC5)cc34)ncn2)C[C@H](C)O1 [MLi-2]
residual activity [1, 14]: 69%
residual activity [2, 14]: 90%
residual activity [3, 14]: 97%
residual activity [4, 14]: 74%
residual activity [5, 14]: 67%
residual activity [6, 14]: 77%
residual activity [7, 14]: 79%
residual activity [8, 14]: 67%
residual activity [9, 14]: 0%
residual activity [10, 14]: 76%
residual activity [11, 14]: 92%
residual activity [12, 14]: 68%
residual activity [13, 14]: 73%

C[C@@H]1CN(c2cc(-c3nn(C)c4ccc(OC5(C)CC5)cc34)ncn2)C[C@H](C)O1 [MLi-2-NC]
residual activity [1, 15]: 87%
residual activity [2, 15]: 91%
residual activity [3, 15]: 83%
residual activity [4, 15]: 100%
residual activity [5, 15]: 100%
residual activity [6, 15]: 74%
residual activity [7, 15]: 68%
residual activity [8, 15]: 80%
residual activity [9, 15]: 12%
residual activity [10, 15]: 82%
residual activity [11, 15]: 78%
residual activity [12, 15]: 58%
residual activity [13, 15]: 76%
